Reference: PMC10420655, “Evaluation of α-Glucosidase Inhibition and Antihyperglycemic Activity of Extracts Obtained from Leaves and Flowers of Rumex crispus L” (Molecules, 2023)
Values after ≈ are worked out from the molar mass of the structure shown.

Target: T1, α-glucosidase type I from S. cerevisiae
T1 construct: gene MAL12
Assay: chromogenic pNPG hydrolysis, absorbance at […] nm, 96-well plate
Assay type: biochemical, Saccharomyces cerevisiae
Conditions: substrate p-nitrophenyl-α-D-glucopyranoside (20 µL of 5 mM stock), 0.1 M phosphate buffer pH 6.9, 37 °C, 15 min preincubation

C[C@H]1O[C@H](O[C@H]2[C@H](O)[C@@H](O)[C@@H](O[C@H]3[C@H](O)[C@@H](O)C(O)O[C@@H]3CO)O[C@@H]2CO)[C@H](O)[C@@H](O)[C@@H]1N[C@H]1C=C(CO)[C@@H](O)[C@H](O)[C@H]1O (stereo partly shown) [Acarbose]
IC50: 3698.0 ± 76.5 µg/mL (≈ 5.73 mM)
